One may read the IC50 as the concentration that inhibits the measured activity by half.

truncated Polθ protein (Polθ-Hel containing the helicase domain (67-894)), sequence (O75417 67-894): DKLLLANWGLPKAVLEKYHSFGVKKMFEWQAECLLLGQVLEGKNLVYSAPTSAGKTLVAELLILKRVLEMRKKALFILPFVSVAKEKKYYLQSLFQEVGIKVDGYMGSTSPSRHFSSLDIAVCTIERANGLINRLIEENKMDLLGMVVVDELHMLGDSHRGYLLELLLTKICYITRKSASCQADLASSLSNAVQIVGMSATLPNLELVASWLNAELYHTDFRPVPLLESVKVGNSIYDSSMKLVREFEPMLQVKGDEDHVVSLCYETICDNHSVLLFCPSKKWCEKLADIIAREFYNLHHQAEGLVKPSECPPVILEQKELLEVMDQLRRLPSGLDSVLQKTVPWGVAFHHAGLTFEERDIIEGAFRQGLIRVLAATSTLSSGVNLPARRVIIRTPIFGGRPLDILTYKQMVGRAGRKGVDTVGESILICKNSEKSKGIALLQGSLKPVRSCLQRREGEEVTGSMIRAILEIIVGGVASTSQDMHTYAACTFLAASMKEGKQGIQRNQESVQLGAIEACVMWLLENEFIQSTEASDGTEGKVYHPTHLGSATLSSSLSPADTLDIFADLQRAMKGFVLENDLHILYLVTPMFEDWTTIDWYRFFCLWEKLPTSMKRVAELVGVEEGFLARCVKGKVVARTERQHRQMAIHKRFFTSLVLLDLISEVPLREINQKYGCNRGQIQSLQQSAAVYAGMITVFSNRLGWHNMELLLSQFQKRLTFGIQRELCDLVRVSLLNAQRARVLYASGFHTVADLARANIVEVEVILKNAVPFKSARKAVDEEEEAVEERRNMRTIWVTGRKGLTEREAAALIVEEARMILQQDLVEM

The first experiment concerns the target truncated Polθ protein (Polθ-Hel containing the helicase domain (67-894)) (Homo sapiens (Human), UniProt O75417). Kind of experiment: Polθ ATPase assay (Biological Assay 1, ADP-Glo luminescence). The settings on record: Polθ-Hel 0.5 nM, DNA substrate 500 nM, ATP 60 μM, 23° C.; read-out: Pole ATPase assay IC50. It counts as biochemical. The procedure:
The Polθ ATPase assay was used to evaluate inhibitors of Polθ ATPase activity, in vitro. Experiments were performed using a truncated Polθ protein (Polθ-Hel containing the helicase domain (67-894), ATP and a DNA single strand Oligo (5′-CTGTCCTGCATGATG-3′) in the Polθ assay buffer (20 mM Tis-HCl (pH 8.8), MgCl2 5 mM, tween20 0.01%, NP40 0.01%, BSA 0.01%, DTT 1 mM). 2 μL of assay buffer containing Pole-Hel protein (0.5 nM) and DNA substrate (500 nM) was transferred into assay ready plates, containing 0.04 μL of compounds diluted in DMSO. After a 30 minutes incubation at 23° C. in the dark, the reaction was triggered by adding 2 μL of ATP (60 μM), in assay buffer. After 60 minutes at 23° C., 4 μl of ADP-Glo™ Reagent (Glo 1) was added followed by 40 minutes of incubation, then 8 μl of ADP-Glom kinase Detection Reagent (Glo 2) followed by 60 minutes of incubation at 23° C. Luminescence was then measured using Tecan F200 infinite plate reader. Raw data were analysed using GeneData to generate IC50 values.
The Polθ ATPase assay described in Biological Assay 1 above was used to evaluate inhibitors of Polθ ATPase activity for the compounds described in the Experimental Part B above, in vitro.
`COc1cnc(Cl)cc1-c1cc(C)ncc1C(=O)Nc1nc2cnc(N3CCC(F)(F)C3)nc2s1` [Example 25, 2′-chloro-N-[5-(3,3-difluoropyrrolidin-1-yl)-[1,3]thiazolo[5,4-d]pyrimidin-2-yl]-5′-methoxy-6-methyl-[4,4′-bipyridine]-3-carboxamide]: the concentration for half-maximal inhibition (IC50) was less than 100 nM.

Regarding `COc1cnc(Cl)cc1-c1cc(C)ncc1C(=O)Nc1nc2cnc(N3CCC(OC)C3)nc2s1` (stereo not shown) [Example 32, 2′-chloro-5′-methoxy-N-[5-(3-methoxypyrrolidin-1-yl)-[1,3]thiazolo[5,4-d]pyrimidin-2-yl]-6-methyl-[4,4′-bipyridine]-3-carboxamide], the IC50 was less than 100 nM. Still for that read-out and setting: next, `COc1cnc(C(F)F)cc1-c1cc(C)ncc1C(=O)Nc1nc2cnc(N3CCOCC3)nc2s1` [Example 89]: less than 100 nM; `COc1cnc(Cl)cc1-c1cc(C)ncc1C(=O)Nc1nc2ncc(N3CCC(O)CC3)cc2s1` [Example 71, 2′-chloro-N-[6-(4-hydroxypiperidin-1-yl)-[1,3]thiazolo[4,5-b]pyridin-2-yl]-5′-methoxy-6-methyl-[4,4′-bipyridine]-3-carboxamide]: less than 100 nM; `COc1cnc(Cl)cc1-c1cc(C)ncc1C(=O)Nc1nc2cnc(N3CCS(=O)(=O)CC3)nc2s1` [Example 27, 2′-chloro-N-[5-(1,1-dioxo-1λ^6-thiomorpholin-4-yl)-[1,3]thiazolo[5,4-d]pyrimidin-2-yl]-5′-methoxy-6-methyl-[4,4′-bipyridine]-3-carboxamide]: less than 100 nM. Same read-out and setting: under `COc1cnc(C(F)(F)F)cc1-c1cc(C)ncc1C(=O)Nc1nc2cnc(N3CCC(O)CC3)nc2s1` [Example 88, N-[5-(4-hydroxypiperidin-1-yl)-[1,3]thiazolo[5,4-d]pyrimidin-2-yl]-5′-methoxy-6-methyl-2′-(trifluoromethyl)-[4,4′-bipyridine]-3-carboxamide] stands less than 100 nM; under `COc1cnc(Cl)cc1-c1cc(C)ncc1C(=O)Nc1nc2ccc(S(C)(=N)=O)cc2s1` (stereo not shown) [Example 83, 2′-chloro-N-{6-[imino(methyl)oxo-λ^6-sulfanyl]-1,3-benzothiazol-2-yl}-5′-methoxy-6-methyl-[4,4′-bipyridine]-3-carboxamide], less than 100 nM; under `COc1cnc(Cl)cc1-c1cc(C)ncc1C(=O)Nc1nc2ccc(Cl)nc2s1` [Example 7, 2′-chloro-N-{5-chloro-[1,3]thiazolo[5,4-b]pyridin-2-yl}-5′-methoxy-6-methyl-[4,4′-bipyridine]-3-carboxamide], less than 100 nM. Still for that read-out and setting: next, `COc1cnc(Cl)cc1-c1cc(C)ncc1C(=O)Nc1nc2cncnc2s1` [Example 42, 2′-chloro-5′-methoxy-6-methyl-N-{[1,3]thiazolo[5,4-d]pyrimidin-2-yl}-[4,4′-bipyridine]-3-carboxamide]: less than 100 nM; `COc1cnc(Cl)cc1-c1cc(C)ncc1C(=O)Nc1nc2ccc(N3CCCCC3=O)nc2s1` [Example 73, 2′-chloro-5′-methoxy-6-methyl-N-[5-(2-oxopiperidin-1-yl)-[1,3]thiazolo[5,4-b]pyridin-2-yl]-[4,4′-bipyridine]-3-carboxamide]: less than 100 nM. For `COc1cnc(Cl)cc1-c1cc(C)ncc1C(=O)Nc1nc2cnc(N3CCC4(CC3)COC4)nc2s1` [Example 53, 2′-chloro-5′-methoxy-6-methyl-N-(5-{2-oxa-7-azaspiro[3.5]nonan-7-yl}-[1,3]thiazolo[5,4-d]pyrimidin-2-yl)-[4,4′-bipyridine]-3-carboxamide], the IC50 was less than 100 nM. On the same count and under the same terms, under `COc1cnc(Cl)cc1-c1cc(C)ncc1C(=O)Nc1nc2cnc(N3CCOC[C@@H]3C)nc2s1` [Example 51, 2′-chloro-5′-methoxy-6-methyl-N-{5-[(3S)-3-methylmorpholin-4-yl]-[1,3]thiazolo[5,4-d]pyrimidin-2-yl}-[4,4′-bipyridine]-3-carboxamide] stands less than 100 nM; under `COc1cnc(Cl)cc1-c1cc(C)ncc1C(=O)Nc1nc2ccc(N3CCOCC3=O)cc2s1` [Example 57, 2′-chloro-5′-methoxy-6-methyl-N-[6-(3-oxomorpholin-4-yl)-1,3-benzothiazol-2-yl]-[4,4′-bipyridine]-3-carboxamide], less than 100 nM. The same measure, in the same setting: under `COc1cnc(Cl)cc1-c1cc(C)ncc1C(=O)Nc1nc2ccc(N3CCOCC3)nc2s1` [Example 72, 2′-chloro-5′-methoxy-6-methyl-N-[5-(morpholin-4-yl)-[1,3]thiazolo[5,4-b]pyridin-2-yl]-[4,4′-bipyridine]-3-carboxamide] stands less than 100 nM; under `COc1cnc(Cl)cc1-c1cc(C)ncc1C(=O)Nc1nc2cnc(N3CCCCC3=O)nc2s1` [Example 94, 2′-chloro-5′-methoxy-6-methyl-N-[5-(2-oxopiperidin-1-yl)-[1,3]thiazolo[5,4-d]pyrimidin-2-yl]-[4,4′-bipyridine]-3-carboxamide], less than 100 nM; under `COc1cnc(Cl)cc1-c1cc(C)ncc1C(=O)Nc1nc2ccc(-c3ccc(Cl)cn3)cc2s1` [Example 38, 2′-chloro-N-[6-(5-chloropyridin-2-yl)-1,3-benzothiazol-2-yl]-5′-methoxy-6-methyl-[4,4′-bipyridine]-3-carboxamide], less than 100 nM. Same read-out and setting: next, `COc1cnc(Cl)cc1-c1cc(C)ncc1C(=O)Nc1nc2cnc(N3CCCC3)nc2s1` [Example 24, 2′-chloro-5′-methoxy-6-methyl-N-[5-(pyrrolidin-1-yl)-[1,3]thiazolo[5,4-d]pyrimidin-2-yl]-[4,4′-bipyridine]-3-carboxamide]: less than 100 nM; `COc1cnc(Cl)cc1-c1cc(C)ncc1C(=O)Nc1nc2cnc(N3CCC(F)(F)CC3)nc2s1` [Example 21, 2′-chloro-N-[5-(4,4-difluoropiperidin-1-yl)-[1,3]thiazolo[5,4-d]pyrimidin-2-yl]-5′-methoxy-6-methyl-[4,4′-bipyridine]-3-carboxamide]: less than 100 nM.

For the molecule `COc1cnc(Cl)cc1-c1cc(C)ncc1C(=O)Nc1nc2ccc(C3=CCCOC3)nc2s1` [Example 37, 2′-chloro-N-[5-(5,6-dihydro-2H-pyran-3-yl)-[1,3]thiazolo[5,4-b]pyridin-2-yl]-5′-methoxy-6-methyl-[4,4′-bipyridine]-3-carboxamide], the concentration for half-maximal inhibition (IC50) is less than 100 nM.

The experiment is the same for the next values; noted with them: Table B; compounds of Experimental Part B, in vitro; read-out: Polθ ATPase assay IC50.
In the case of `COc1cnc(Cl)cc1-c1cc(C)ncc1C(=O)Nc1nc2cc(OCCOC(C)=O)ccc2s1` [Example 123, 2-[(2-{2′-chloro-5'-methoxy-6-methyl-[4,4′-bipyridine]-3-amido}-1,3-benzothiazol-5-yl)oxy]ethyl acetate], the IC50 was less than 100 nM.

`COc1cnc(Cl)cc1-c1cc(C)ncc1C(=O)Nc1nc2cc(OCC#N)ccc2s1` [Example 101, 2′-chloro-N-[5-(cyanomethoxy)-1,3-benzothiazol-2-yl]-5′-methoxy-6-methyl-[4,4′-bipyridine]-3-carboxamide]: the 50% inhibitory concentration (IC50) was less than 100 nM.

Take `COc1cnc(Cl)cc1-c1cc(C)ncc1C(=O)Nc1nc2cc(O)ccc2s1` [Example 122, 2′-chloro-N-(5-hydroxy-1,3-benzothiazol-2-yl)-5′-methoxy-6-methyl-[4,4′-bipyridine]-3-carboxamide]: the IC50 is less than 100 nM. The same measure, in the same setting: under `COCCNC(=O)c1ccc2sc(NC(=O)c3cnc(C)cc3-c3cc(Cl)ncc3OC)nc2c1` [Example 107, 2′-chloro-5′-methoxy-N-{5-[(2-methoxyethyl)carbamoyl]-1,3-benzothiazol-2-yl}-6-methyl-[4,4′-bipyridine]-3-carboxamide] stands less than 100 nM.

For the molecule `CCOc1ccc2sc(NC(=O)c3cnc(C)cc3-c3cc(Cl)ncc3OC)nc2c1` [Example 114, 2′-chloro-N-(5-ethoxy-1,3-benzothiazol-2-yl)-5′-methoxy-6-methyl-[4,4′-bipyridine]-3-carboxamide], the IC50 lay within 100 to 1000 nM. The same measure, in the same setting: under `COc1cnc(Cl)cc1-c1cc(C)ncc1C(=O)Nc1nc2cnc(NCCCCC(=O)O)cc2s1` [Example 119, 5-[(2-{2′-chloro-5′-methoxy-6-methyl-[4,4′-bipyridine]-3-amido}-[1,3]thiazolo[4,5-c]pyridin-6-yl)amino]pentanoic acid] stands less than 100 nM. The same measure, in the same setting: under `COc1cnc(Cl)cc1-c1cc(C)ncc1C(=O)Nc1nc2cc(OC(F)(F)C(=O)N(C)C)ccc2s1` [Example 104, 2′-chloro-N-{5-[(dimethylcarbamoyl)difluoromethoxy]-1,3-benzothiazol-2-yl}-5′-methoxy-6-methyl-[4,4′-bipyridine]-3-carboxamide] stands less than 100 nM; under `COc1cnc(Cl)cc1-c1cc(C)ncc1C(=O)Nc1nc2ccc(C3COCCN3)cc2s1` (stereo not shown) [Example 128, 2′-chloro-5′-methoxy-6-methyl-N-[6-(morpholin-3-yl)-1,3-benzothiazol-2-yl]-[4,4′-bipyridine]-3-carboxamide], less than 100 nM; under `COc1cnc(Cl)cc1-c1cc(C)ncc1C(=O)Nc1nc2c(OCC#N)ncnc2s1` [Example 126, 2′-chloro-N-[7-(cyanomethoxy)-[1,3]thiazolo[5,4-d]pyrimidin-2-yl]-5′-methoxy-6-methyl-[4,4′-bipyridine]-3-carboxamide], less than 100 nM.

The values above are taken from US20240327430A1 (Breakpoint Therapeutics GmbH, priority 2023, published 2024).
